Measured values published in patent publication US11590139B2, “Substituted aminopurine compounds, compositions thereof, and methods of treatment therewith” (Signal Pharmaceuticals, LLC, priority 2014, dated 2023).

tested on: Lox-IMVI melanoma cell line; experiment: Lox-IMVI anti-proliferative assay (growth inhibition, Cell Titer-Glo); type: cell-based, human; conditions: Homo sapiens; IC50 activity level in the cell-based Lox-IMVI anti-proliferative assay; read-out: Activity
Method in brief: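 IC50 values reflect the concentration giving 50% of DMSO-control luminescence after 72 h of treatment, fitted with a four-parameter logistic model. Cells were cultured in RPMI + 10% FBS with compound from 0.5 nM to 10 μM.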

`NC(=O)[C@H]1CC[C@@H](n2c(Nc3c(F)cccc3F)nc3cnc(N[C@H]4CCC[C@@H]4O)nc32)CC1` [Example 267, (1R,4s)-4-(8-(2,6-difluorophenylamino)-2-((1S,2S)-2-hydroxycyclopentylamino)-9H-purin-9-yl)cyclohexanecarboxamide] and `NC(=O)[C@H]1CC[C@@H](n2c(Nc3c(F)ccc(Cl)c3F)nc3cnc(N[C@H]4CCC[C@@H]4O)nc32)CC1` [Example 273, (1R,4s)-4-(8-(3-chloro-2,6-difluorophenylamino)-2-((1S,2S)-2-hydroxycyclopentylamino)-9H-purin-9-yl)cyclohexanecarboxamide] cannot be ordered by IC50: > 1000 nM for the first, > 1000 nM for the second.

First: NC(=O)[C@H]1CC[C@@H](n2c(Nc3c(F)cc(Cl)cc3Cl)nc3cnc(N[C@@H]4CCCOC4)nc32)CC1 [Example 190, (1S,4s)-4-(8-(2,4-dichloro-6-fluorophenylamino)-2-((R)-tetrahydro-2H-pyran-3-ylamino)-9H-purin-9-yl)cyclohexanecarboxamide]
Second: NC(=O)[C@H]1CC[C@@H](n2c(Nc3c(F)cc(Cl)cc3Cl)nc3cnc(N[C@H]4CCOC4)nc32)CC1 [Example 244, (1R,4s)-4-(8-(2,4-dichloro-6-fluorophenylamino)-2-((S)-tetrahydrofuran-3-ylamino)-9H-purin-9-yl)cyclohexanecarboxamide]
The IC50 of the first is higher: > 1000 nM for the first, 500 to 1000 nM for the second. The second is the more potent here.

`NC(=O)[C@H]1CC[C@@H](n2c(Nc3cc(F)c(Cl)cc3F)nc3cnc(N[C@@H]4COC[C@H]4O)nc32)CC1` [Example 321, (1S,4s)-4-(8-(4-chloro-2,5-difluorophenylamino)-2-((3R,4S)-4-hydroxytetrahydrofuran-3-ylamino)-9H-purin-9-yl)cyclohexanecarboxamide] and `NC(=O)[C@H]1CC[C@@H](n2c(Nc3c(F)cc(F)cc3Cl)nc3cnc(NC4COCC4O)nc32)CC1` (stereo partly shown) [Example 179, (1s,4s)-4-(8-(2-chloro-4,6-difluorophenylamino)-2-(4-hydroxytetrahydrofuran-3-ylamino)-9H-purin-9-yl)cyclohexanecarboxamide] cannot be ordered by IC50: > 1000 nM for the first, > 1000 nM for the second.

`CC1(C)CC[C@@H](Nc2ncc3nc(Nc4c(F)cccc4Cl)n([C@H]4CC[C@@H](C(N)=O)CC4)c3n2)C[C@H]1O` [Example 384, (1S,4s)-4-(8-(2-chloro-6-fluorophenylamino)-2-((1R,3R)-3-hydroxy-4,4-dimethylcyclohexylamino)-9H-purin-9-yl)cyclohexanecarboxamide] and `CC1(C)CC[C@@H](Nc2ncc3nc(Nc4c(F)cc(F)cc4Cl)n([C@H]4CC[C@@H](C(N)=O)CC4)c3n2)C[C@H]1O` [Example 385, (1S,4s)-4-(8-(2-chloro-4,6-difluorophenylamino)-2-((1R,3R)-3-hydroxy-4,4-dimethylcyclohexylamino)-9H-purin-9-yl)cyclohexanecarboxamide] cannot be ordered by IC50: > 1000 nM for the first, > 1000 nM for the second.

First: C[C@H](CO)Nc1ncc2nc(Nc3c(F)cc(Cl)cc3Cl)n([C@H]3CC[C@@H](C(N)=O)CC3)c2n1 [Example 133, (1S,4s)-4-(8-(2,4-dichloro-6-nuorophenylamino)-2-((R)-1-hydroxypropan-2-ylamino)-9H-purin-9-yl)cyclohexanecarboxamide]
Second: C[C@@H](CO)Nc1ncc2nc(Nc3c(Cl)cccc3Cl)n([C@H]3CC[C@@H](C(N)=O)CC3)c2n1 [Example 168, (1R,4s)-4-(8-(2,6-dichlorophenylamino)-2-((S)-1 hydroxypropan-2-ylamino)-9H-purin-9-yl)cyclohexanecarboxamide]
The IC50 of the first is lower: 500 to 1000 nM for the first, > 1000 nM for the second.

`Cc1c(Nc2nc3cnc(NC4CCOCC4)nc3n2[C@H]2CC[C@@H](C(N)=O)CC2)ccc(Cl)c1F` [Example 89, (1s,4s)-4-(8-(4-chloro-3-fluoro-2-methylphenylamino)-2-(tetrahydro-2H-pyran-4-ylamino)-9H-purin-9-yl)cyclohexanecarboxamide] and `NC(=O)[C@H]1CC[C@@H](n2c(Nc3ccc(Cl)c(F)c3F)nc3cnc(N[C@@H]4CC[C@@H](O)C4)nc32)CC1` [Example 216, (1S,4s)-4-(8-(4-chloro-2,3-difluorophenylamino)-2-((1R,3R)-3-hydroxycyclopentylamino)-9H-purin-9-yl)cyclohexanecarboxamide] cannot be ordered by IC50: > 1000 nM for the first, > 1000 nM for the second.

`NC(=O)[C@H]1CC[C@@H](n2c(Nc3c(F)cc(Cl)cc3Cl)nc3cnc(NCC4(CO)CC4)nc32)CC1` [Example 206, (1s,4s)-4-(8-(2,4-dichloro-6-fluorophenylamino)-2-((1-(hydroxymethyl)cyclopropyl)methylami-no)-9H-purin-9-yl)cyclohexanecarboxamide] and `NC(=O)[C@H]1CC[C@@H](n2c(Nc3c(F)cc(F)cc3F)nc3cnc(N[C@H]4C[C@H](O)C4)nc32)CC1` [Example 279, (1s,4s)-4-(2-((1r,3r)-3-hydroxycyclobutylamino)-8-(2,4,6-trifluorophenylamino)-9H-purin-9-yl)cyclohexanecarboxamide] cannot be ordered by IC50: > 1000 nM for the first, > 1000 nM for the second.

same assay, conditions: Homo sapiens; Lox-IMVI anti-proliferative assay, IC50 activity level; read-out: Activity

`C[C@]1(C(N)=O)CC[C@@H](n2c(Nc3c(Cl)cc(Cl)cc3Cl)nc3cnc(NC4CCOCC4)nc32)CC1` [Example 522, (1s,4s)-1-methyl-4-(2-(tetrahydro-2H-pyran-4-ylamino)-8-(2,4,6-trichlorophenylamino)-9H-purin-9-yl)cyclohexanecarboxamide] and `C[C@]1(C(N)=O)CC[C@@H](n2c(Nc3c(Cl)cc(C#N)cc3Cl)nc3cnc(NC4CCC(F)(F)CC4)nc32)CC1` [Example 534, (1s,4s)-4-(8-(2,6-dichloro-4-cyanophenylamino)-2-(4,4-difluorocyclohexylamino)-9H-purin-9-yl)-1-methylcyclohexanecarboxamide] cannot be ordered by IC50: < 250 nM for the first, < 250 nM for the second.

`NC(=O)[C@H]1CC[C@@H](n2c(Nc3c(Cl)cc(F)cc3Cl)nc3cnc(N[C@H]4CCC[C@H](O)C4)nc32)CC1` [Example 462, (1R,4s)-4-(8-(2,6-dichloro-4-fluorophenylamino)-2-((1S,3S)-3-hydroxycyclohexylamino)-9H-purin-9-yl)cyclohexanecarboxamide] and `N#Cc1cc(Cl)c(Nc2nc3cnc(N[C@H]4CCCC[C@H](O)C4)nc3n2[C@H]2CC[C@@H](C(N)=O)CC2)c(Cl)c1` [Example 449, (1R,4s)-4-(8-(2,6-dichloro-4-cyanophenylamino)-2-((1S,3S)-3-hydroxycycloheptylamino)-9H-purin-9-yl)cyclohexanecarboxamide] cannot be ordered by IC50: > 1000 nM for the first, > 1000 nM for the second.

`COC(=O)N1CCCC(Nc2ncc3nc(Nc4c(F)cccc4F)n([C@H]4CC[C@@H](C(N)=O)CC4)c3n2)C1` (stereo partly drawn) [Example 404, (R)-methyl 3-(9-((1s,4S)-4-carbamoylcyclohexyl)-8-(2,6-difluorophenylamino)-9H-purin-2-ylamino)piperidine-1-carboxylate] was tested, and the IC50 was > 1000 nM.

same assay, conditions: Homo sapiens; Lox-IMVI melanoma cell line, anti-proliferative assay; read-out: Activity (IC50 activity level)

First: C[C@]1(C(N)=O)CC[C@@H](n2c(Nc3c(F)cc(Cl)cc3F)nc3cnc(N[C@H]4CC[C@H](O)C4)nc32)CC1 [Example 648, (1R,4s)-4-(8-(4-chloro-2,6-difluorophenylamino)-2-((1S,3S)-3-hydroxycyclopentylamino)-9H-purin-9-yl)-1-methylcyclohexanecarboxamide]
Second: C[C@]1(C(N)=O)CC[C@@H](n2c(Nc3c(F)cc(F)cc3Cl)nc3cnc(N[C@@H]4CC[C@@H](O)C4)nc32)CC1 [Example 635, (1S,4s)-4-(8-(2-chloro-4,6-difluorophenylamino)-2-((1R,3R)-3-hydroxycyclopentylamino)-9H-purin-9-yl)-1-methylcyclohexanecarboxamide]
The IC50 of the first is higher: > 1000 nM for the first, 250 to 500 nM for the second. The second is the more potent here.

Compared with `C[C@]1(C(N)=O)CC[C@@H](n2c(Nc3c(Cl)cc(F)cc3Cl)nc3cnc(NC4CCOCC4)nc32)CC1` [Example 675, (1s,4s)-4-(8-(2,6-dichloro-4-fluorophenylamino)-2-(tetrahydro-2H-pyran-4-ylamino)-9H-purin-9-yl)-1-methylcyclohexanecarboxamide], `CC(C)N1CCC[C@@H](Nc2ncc3nc(Nc4c(F)cc(Cl)cc4Cl)n([C@H]4CC[C@@H](C(N)=O)CC4)c3n2)C1` [Example 741, (1S,4s)-4-(8-(2,4-dichloro-6-fluorophenylamino)-2-((R)-1-isopropylpiperidin-3-ylamino)-9H-purin-9-yl)cyclohexanecarboxamide] is higher in IC50: < 250 nM for the first, > 1000 nM for the second.

`Cc1ccc(S(=O)(=O)N2CCC[C@@H](Nc3ncc4nc(Nc5c(Cl)cc(C#N)cc5Cl)n([C@H]5CC[C@@H](C(N)=O)CC5)c4n3)C2)cc1` [Example 789, (1S,4s)-4-(8-(2,6-dichloro-4-cyanophenylamino)-2-((R)-1-tosylpiperidin-3-ylamino)-9H-purin-9-yl)cyclohexanecarboxamide] and `Cc1ccc(S(=O)(=O)N2CCC[C@@H](Nc3ncc4nc(Nc5c(Cl)cc(Cl)cc5Cl)n([C@H]5CC[C@@H](C(N)=O)CC5)c4n3)C2)cc1` [Example 788, (1S,4s)-4-(2-((R)-1-tosylpiperidin-3-ylamino)-8-(2,4,6-trichlorophenylamino)-9H-purin-9-yl)cyclohexanecarboxamide] cannot be ordered by IC50: > 1000 nM for the first, > 1000 nM for the second.

`CNC(=O)N1CCC[C@@H](Nc2ncc3nc(Nc4c(F)cc(Cl)cc4Cl)n([C@H]4CC[C@@H](C(N)=O)CC4)c3n2)C1` [Example 706, (R)-3-(9-((1s,4S)-4-carbamoylcyclohexyl)-8-(2,4-dichloro-6-fluorophenylamino)-9H-purin-2-ylamino)-N-methylpiperidine-1-carboxamide] and `CC(=O)N1CCC[C@@H](Nc2ncc3nc(Nc4c(F)cc(Cl)cc4Cl)n([C@H]4CC[C@@H](C(N)=O)CC4)c3n2)C1` [Example 711, (1S,4s)-4-(2-((R)-1-acetylpiperidin-3-ylamino)-8-(2,4-dichloro-6-fluorophenylamino)-9H-purin-9-yl)cyclohexanecarboxamide] cannot be ordered by IC50: > 1000 nM for the first, > 1000 nM for the second.

`CNC(=O)N1CCC[C@@H](Nc2ncc3nc(Nc4c(Cl)cc(C(F)(F)F)cc4Cl)n([C@H]4CC[C@@H](C(N)=O)CC4)c3n2)C1` [Example 796, (R)-3-(9-((1s,4S)-4-carbamoylcyclohexyl)-8-(2,6-dichloro-4-(trifluoromethyl)phenylamino)-9H-purin-2-ylamino)-N-methylpiperidine-1-carboxamide] was tested, and the IC50 was > 1000 nM.
